Test: Solubility of the di-chain cationic surfactant (distearyldimonium chloride) in oils
Conditions: for Evaluation Result (state of the solution of distearyldimonium chloride in the oil): 1 g distearyldimonium chloride mixed and heated to dissolve in 100 g of oil, at rest 24 hours at ambient temperature; for Dissolution of the di-chain cationic surfactant in the oil (text summary of Table 1): 1 g in 100 g oil, 24 hours at ambient temperature

| Compound | Evaluation Result (state of the solution of distearyldimonium chloride in the oil) | Dissolution of the di-chain cationic surfactant in the oil (text summary of Table 1) |
| --- | --- | --- |
| CC(C)CCCCCCCCCCCCCCCOC(=O)CC(O)C(=O)OCCCCCCCCCCCCCCCC(C)C (centres unmarked) [Diisostearyl malate] | ○ | homogeneously dissolved |
| CCCCC(CC)COCC(O)CO (centres unmarked) [Ethylhexylglycerin] | ○ | homogeneously dissolved |
| CC(C)CCCCCCCCCCCCCCCO [Isostearyl alcohol] | – | homogeneously dissolved |
| Glyceryl diisostearate | ○ | homogeneously dissolved |
| CCCCCCCCCCC(CO)CCCCCCCC (centres unmarked) [Octyldodecanol] | – | homogeneously dissolved |

— patent US12161741B2, “Skin gel preparation for external use” (Shiseido Company, Ltd., priority 2018, dated 2024)
